Test results taken from US20230310455A1, “COMBINATION THERAPIES FOR TREATMENT OF HER2 CANCER” (Genentech, Inc., priority 2020, published 2023).

Experiments:
[1] = system: KPL-4 (HER2-positive, PIK3CA H1047R) breast cancer xenograft; experiment: In vivo tumor growth inhibition, KPL-4 breast cancer xenograft model; conditions: inavolisib 25 mg/kg orally daily 28 days, trastuzumab 3 mg/kg and pertuzumab 2.5 mg/kg i.p. weekly 4 weeks
Experimental: The in vivo efficacy of the test compounds and combinations was tested in a KPL-4 (HER2-positive, PIK3CA H1047R) breast cancer xenograft model. […] Tumor volumes were measured using Ultra Cal-IV calipers (Model 54-10-111; Fred V. Fowler Co.; Newton, MA). The following formula was used in Excel, version 11.2 to calculate tumor volume: Tumor Volume (mm^3)=(Length×Width^2)×0.5. Mice for efficacy studies were distributed into 8-10 mice/group with a mean tumor volume of 200 to 250 mm^3 at the initiation of dosing. A linear mixed effect (LME) modeling approach was used to analyze the repeated measurement of tumor volumes from the same animals over time (Pinheiro et al., “Linear and Nonlinear Mixed Effects Models” R package version 3; 1-131 (2017)). Cubic regression splines were used to fit a non-linear profile to the time courses of log^2 tumor volume at each dose level. These non-linear profiles were then related to dose within the mixed model. Tumor growth inhibition as a percentage of vehicle control (%TGI) was calculated as the percentage of the area under the fitted curve (AUC) for the respective dose group per day in relation to the vehicle, using the following formula: %TGI=100×(1−AUCdose/AUCvehicle).
Tumor sizes and mouse body weights were recorded twice weekly, and mice with tumor volume exceeding 2000 mm^3 or body weight loss of 20% of starting weight were promptly euthanized.

[2] = system: HER2 amplified (HER2-positive PIK3CA-mutant) breast cancer cell lines; experiment: Viability assay (CellTiter-Glo), HER2 amplified breast cancer cell lines; assay type: cell-based; conditions: viability by ATP quantification
Excerpt: (§1) In a cell proliferation assay, we investigated the effect of inavolisib and alpelisib (both PI3Kα specific inhibitors) on vialibility of breast cancer cell lines having different HER2 expression and PIK3CA mutant status. Unexpectedly, we observed a significant difference between the sensitivity of inavolisib and alpelisib in HER2 amplified (˜20 fold difference between the mean IC50 values) versus HER2 negative cell lines (˜6-fold difference between two inhibitors). Both inhibitors were not differentiated in wild-type (WT) cell lines regardless of HER2 status (FIG. 1).
(§2) Cell lines were obtained from the ATCC. All cell lines underwent authentication by Short Tandem Repeat profiling, SNP fingerprinting, and mycoplasma testing (Yu M. et al. “A resource for cell line authentication, annotation and quality control” Nature 520, 307-311 (2015)). Cell lines were grown under standard tissue-culture conditions in RPMI media with 10% fetal bovine serum (Gibco, 10082-147), 100 U/mL penicillin-streptomycin (Gibco, 15140-122), 2 mmol/L L-glutamine (Gibco, 15030-081). […]
(§3) Viability assay: Cells were seeded (1000-2000 cells/well) in 384-well plates for 16 hours. […] After 4 days, relative numbers of viable cells were measured by luminescence using CellTiter-Glo® (Promega) according to the manufacturer's instructions and read on a Wallac Multilabel Reader (PerkinElmer, Foster City). […]

[3] = system: HER2 negative (PIK3CA-mutant) breast cancer cell lines; experiment: Viability assay (CellTiter-Glo), HER2 negative breast cancer cell lines; assay type: cell-based; conditions: viability by ATP quantification
Excerpt: as §1, §2, §3

[4] = target: Class I PI3K alpha isoform (PI3Kα) versus Class I PI3K beta, delta, and gamma isoforms (Homo sapiens, UniProt P42336); conditions: cited from earlier work
Class I PI3K alpha isoform (PI3Kα) versus Class I PI3K beta, delta, and gamma isoforms, sequence (P42336 whole entry, canonical isoform): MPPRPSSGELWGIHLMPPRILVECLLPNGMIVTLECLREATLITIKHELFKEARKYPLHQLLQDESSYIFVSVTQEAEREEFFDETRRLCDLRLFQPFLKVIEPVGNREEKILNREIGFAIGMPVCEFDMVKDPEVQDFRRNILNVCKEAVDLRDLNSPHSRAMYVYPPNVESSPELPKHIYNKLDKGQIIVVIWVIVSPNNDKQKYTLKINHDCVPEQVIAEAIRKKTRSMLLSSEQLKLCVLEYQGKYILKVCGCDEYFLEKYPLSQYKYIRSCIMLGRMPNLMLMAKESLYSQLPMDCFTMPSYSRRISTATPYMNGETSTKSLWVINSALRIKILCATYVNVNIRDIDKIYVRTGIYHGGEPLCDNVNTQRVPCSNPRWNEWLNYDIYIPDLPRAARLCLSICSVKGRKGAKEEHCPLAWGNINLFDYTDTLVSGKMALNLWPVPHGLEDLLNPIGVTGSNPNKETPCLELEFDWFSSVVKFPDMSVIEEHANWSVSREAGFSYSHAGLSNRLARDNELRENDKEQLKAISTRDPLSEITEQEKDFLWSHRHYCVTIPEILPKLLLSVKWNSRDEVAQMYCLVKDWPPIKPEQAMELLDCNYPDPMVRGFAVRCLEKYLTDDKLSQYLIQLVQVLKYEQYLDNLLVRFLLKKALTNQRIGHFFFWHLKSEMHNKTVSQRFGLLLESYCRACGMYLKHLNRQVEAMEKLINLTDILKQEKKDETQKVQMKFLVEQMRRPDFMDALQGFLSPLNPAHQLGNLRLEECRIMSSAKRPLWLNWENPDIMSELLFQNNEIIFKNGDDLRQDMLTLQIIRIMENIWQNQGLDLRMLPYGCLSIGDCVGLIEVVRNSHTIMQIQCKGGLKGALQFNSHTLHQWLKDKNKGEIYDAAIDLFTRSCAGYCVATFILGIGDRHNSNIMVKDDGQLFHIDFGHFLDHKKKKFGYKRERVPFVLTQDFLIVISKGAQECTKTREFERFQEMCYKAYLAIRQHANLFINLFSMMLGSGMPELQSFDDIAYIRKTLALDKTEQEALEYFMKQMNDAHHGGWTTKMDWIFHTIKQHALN
Class I PI3K alpha isoform (PI3Kα) versus Class I PI3K beta, delta, and gamma isoforms, sequence (P27986 whole entry partner, canonical isoform): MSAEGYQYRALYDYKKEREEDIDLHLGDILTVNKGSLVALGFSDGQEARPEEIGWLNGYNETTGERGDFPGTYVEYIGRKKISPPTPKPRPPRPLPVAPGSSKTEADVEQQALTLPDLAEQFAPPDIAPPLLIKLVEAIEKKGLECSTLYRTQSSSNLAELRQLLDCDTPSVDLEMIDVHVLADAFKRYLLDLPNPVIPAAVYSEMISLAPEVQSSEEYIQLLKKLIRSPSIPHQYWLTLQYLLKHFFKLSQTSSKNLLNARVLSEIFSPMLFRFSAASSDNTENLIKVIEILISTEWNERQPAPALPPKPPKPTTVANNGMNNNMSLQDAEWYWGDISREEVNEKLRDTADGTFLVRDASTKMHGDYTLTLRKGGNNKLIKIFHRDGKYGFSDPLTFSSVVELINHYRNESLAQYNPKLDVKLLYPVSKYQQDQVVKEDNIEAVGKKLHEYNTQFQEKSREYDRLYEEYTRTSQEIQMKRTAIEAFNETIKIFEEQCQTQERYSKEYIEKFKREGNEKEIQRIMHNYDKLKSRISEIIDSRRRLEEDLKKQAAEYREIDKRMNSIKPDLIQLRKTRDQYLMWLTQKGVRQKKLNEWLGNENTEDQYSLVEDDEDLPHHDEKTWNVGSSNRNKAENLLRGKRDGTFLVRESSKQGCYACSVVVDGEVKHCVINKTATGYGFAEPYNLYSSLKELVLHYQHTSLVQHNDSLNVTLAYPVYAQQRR

Structure (SMILES): C[C@H](Nc1ccc2c(c1)OCCn1cc(N3C(=O)OC[C@H]3C(F)F)nc1-2)C(N)=O [inavolisib, (S)-2-((2-((S)-4-(difluoromethyl)-2-oxooxazolidin-3-yl)-5,6-dihydrobenzo[f]imidazo[1,2-d][1,4]oxazepin-9-yl)amino)propanamide]
- Growth Effect Duration [1]: >31.0
- Growth Rate Contrast [1]: −0.069
- Growth Contrast ([1]; 9 mice per group): −0.086
- difference between the mean IC50 values of inavolisib and alpelisib [2]: ~20 fold
- difference between two inhibitors (mean IC50 values of inavolisib and alpelisib) [3]: 6 fold
- less potent biochemical inhibition for other Class I PI3K beta, delta, and gamma isoforms (selectivity for PI3Kα) [4]: > 300 fold
